Laboratory results from ChEMBL document CHEMBL1154287, “Phenylaminopyrimidines as inhibitors of Janus kinases (JAKs)” (Bioorg Med Chem Lett, 2009).

Tests used:
[1] = Oral bioavailability in Sprague-Dawley rat at 21 mg/kg; type: ADME, organism-based; settings: in vivo
[2] = Cmax in Sprague-Dawley rat at 21 mg/kg; type: ADME, organism-based; parameters: dose 21 mg/kg; settings: in vivo
[3] = Blood clearance in Sprague-Dawley rat at 21 mg/kg, iv; type: ADME, organism-based; parameters: dose 21 mg/kg, route intravenous
[4] = Apparent permeability from basolateral to apical side in human Caco-2 cells; type: ADME, cell-based
[5] = biological target: Tyrosine-protein kinase JAK2 (Homo sapiens, UniProt O60674)
Chain of Tyrosine-protein kinase JAK2 (O60674 whole entry): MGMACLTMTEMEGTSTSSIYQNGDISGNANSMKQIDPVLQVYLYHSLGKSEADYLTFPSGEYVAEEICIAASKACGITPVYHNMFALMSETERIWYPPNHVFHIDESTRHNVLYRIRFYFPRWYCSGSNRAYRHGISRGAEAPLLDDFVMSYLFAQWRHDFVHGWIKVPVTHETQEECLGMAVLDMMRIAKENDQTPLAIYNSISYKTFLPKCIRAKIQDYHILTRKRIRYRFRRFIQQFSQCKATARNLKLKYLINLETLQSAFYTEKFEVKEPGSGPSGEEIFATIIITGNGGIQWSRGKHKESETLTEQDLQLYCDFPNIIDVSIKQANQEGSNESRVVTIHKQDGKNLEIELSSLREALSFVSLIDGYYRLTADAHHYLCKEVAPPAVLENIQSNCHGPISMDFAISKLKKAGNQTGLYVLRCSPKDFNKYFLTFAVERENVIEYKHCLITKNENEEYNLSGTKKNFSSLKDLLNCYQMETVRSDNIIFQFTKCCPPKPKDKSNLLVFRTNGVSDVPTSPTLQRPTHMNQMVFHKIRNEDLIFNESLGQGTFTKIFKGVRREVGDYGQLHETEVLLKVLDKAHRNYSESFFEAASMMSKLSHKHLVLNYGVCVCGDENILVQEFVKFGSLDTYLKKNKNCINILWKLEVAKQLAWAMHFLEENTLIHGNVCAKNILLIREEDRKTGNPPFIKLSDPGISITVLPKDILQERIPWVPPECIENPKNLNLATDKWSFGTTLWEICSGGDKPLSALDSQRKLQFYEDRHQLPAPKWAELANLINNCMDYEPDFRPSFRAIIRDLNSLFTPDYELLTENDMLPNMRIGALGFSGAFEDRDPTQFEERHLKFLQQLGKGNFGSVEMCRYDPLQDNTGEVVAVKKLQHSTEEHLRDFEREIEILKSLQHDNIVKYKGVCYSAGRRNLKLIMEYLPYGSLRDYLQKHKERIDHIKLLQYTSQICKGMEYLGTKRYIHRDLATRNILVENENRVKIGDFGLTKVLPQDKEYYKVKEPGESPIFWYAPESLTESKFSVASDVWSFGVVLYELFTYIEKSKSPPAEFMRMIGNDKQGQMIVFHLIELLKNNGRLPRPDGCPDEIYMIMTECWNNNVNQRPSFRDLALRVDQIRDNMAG
Description: Inhibition of GST-tagged JAK2 kinase

[6] = biological target: T1, Tyrosine-protein kinase JAK3 (Homo sapiens, UniProt P52333)
T1 sequence (P52333 whole entry): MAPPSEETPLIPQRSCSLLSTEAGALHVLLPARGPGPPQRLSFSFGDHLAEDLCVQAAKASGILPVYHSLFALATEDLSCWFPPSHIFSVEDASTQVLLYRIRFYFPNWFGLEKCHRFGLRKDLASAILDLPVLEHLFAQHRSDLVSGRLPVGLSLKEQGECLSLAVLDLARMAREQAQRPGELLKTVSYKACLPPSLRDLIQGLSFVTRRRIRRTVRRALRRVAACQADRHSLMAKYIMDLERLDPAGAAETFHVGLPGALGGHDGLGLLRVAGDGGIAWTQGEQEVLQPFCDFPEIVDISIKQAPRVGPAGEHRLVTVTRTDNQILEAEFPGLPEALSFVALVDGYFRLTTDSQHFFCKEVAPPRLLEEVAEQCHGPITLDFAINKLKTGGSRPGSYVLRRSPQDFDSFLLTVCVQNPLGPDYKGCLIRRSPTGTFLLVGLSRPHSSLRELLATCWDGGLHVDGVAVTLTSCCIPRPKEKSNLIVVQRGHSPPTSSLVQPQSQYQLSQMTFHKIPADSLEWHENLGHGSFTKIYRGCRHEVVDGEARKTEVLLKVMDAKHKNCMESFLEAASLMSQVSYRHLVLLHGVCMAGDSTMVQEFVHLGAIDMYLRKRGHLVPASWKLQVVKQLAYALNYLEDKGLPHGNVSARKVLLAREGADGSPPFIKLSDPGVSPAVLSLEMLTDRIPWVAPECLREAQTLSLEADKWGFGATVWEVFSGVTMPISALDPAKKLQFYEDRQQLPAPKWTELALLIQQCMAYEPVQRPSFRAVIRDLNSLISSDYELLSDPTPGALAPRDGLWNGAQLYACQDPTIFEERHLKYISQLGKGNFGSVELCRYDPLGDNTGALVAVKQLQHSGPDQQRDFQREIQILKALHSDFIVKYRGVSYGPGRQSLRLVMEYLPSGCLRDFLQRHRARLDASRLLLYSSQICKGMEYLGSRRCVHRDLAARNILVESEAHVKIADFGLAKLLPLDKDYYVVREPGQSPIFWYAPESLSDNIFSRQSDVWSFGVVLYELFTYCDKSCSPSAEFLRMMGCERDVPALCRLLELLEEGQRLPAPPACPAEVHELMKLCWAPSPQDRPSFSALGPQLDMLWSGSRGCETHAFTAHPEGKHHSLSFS
Description: Inhibition of GST-tagged JAK3 kinase

[7] = system: BaF3; assay: cells; settings: Mus musculus, BaF3, 72 h
Description: Antiproliferative activity against mouse BAF3 cells expressing TEL-JAK2 kinase after 72 hrs by alamar blue assay

[8] = system: BaF3; assay: cells; settings: Mus musculus, BaF3, 72 h; remark: listed apart in the source
Description: Antiproliferative activity against mouse BAF3 cells expressing TEL-JAK3 kinase after 72 hrs by alamar blue assay

[9] = cells; settings: Mus musculus, CTLL-2, 72 h
Description: Antiproliferative activity against IL-2-stimulated mouse CTLL-2 cells expressing JAK1/JAK3 after 72 hrs by alamar blue assay

[10] = in vitro; settings: human, Caco-2
Description: Apparent permeability from apical to basolateral side in human Caco-2 cells

[11] = in vitro; settings: human, Caco-2; remark: listed apart in the source
Description: Ratio of permeability from apical to basolateral side over basolateral to apical side in human Caco-2 cells

bioavailability [1]: 5.4% | Cmax [2]: 270 nM | clearance [3]: 36.6 mL/min/kg | Papp B→A [4]: 56.4 ×10⁻⁶ cm/s | IC50 [5]: 2 nM | IC50 [6]: 587 nM | IC50 [7]: 802 nM | IC50 [8]: 3560 nM | IC50 [9]: 2220 nM | Papp A→B [10]: 4.6 ×10⁻⁶ cm/s | efflux ratio [11]: 12.3
SMILES: CS(=O)(=O)Nc1ccc(-c2ccnc(Nc3ccc(CN4CCS(=O)(=O)CC4)cc3)n2)cc1
